Laboratory results taken from patent US10174083B2, “Aza-amino acid collagen compounds” (The Trustees of the University of Pennsylvania, priority 2016, dated 2019).

Experiment: Triple helix self-assembly by CD spectroscopy
Type: physicochemical
Method: Circular dichroism (CD) spectroscopy was used to evaluate self-assembly of the triple helix for each of our collagen model peptides. […] The data from CD thermal denaturation experiments were fitted to a two-state model, as previously described.
Purified peptides were incubated in PBS buffer for at least 24 hours. […] The data from CD thermal denaturation experiments were fitted to a two-state model as previously described.^12,13 The melting temperatures (Tm), at which 50% of the triple helix unfolds, are listed next to the peptides in FIG. 11.
Resulting peptide 5 was purified by HPLC and incubated at a concentration of 0.2 mM in PBS buffer (pH 7) for 24 h.
Multiple aza-Proline residues: Finally, we determined the number of stereodynamic center (i.e., AzProHypGly trimer) that can be incorporated into a collagen model peptide without perturbing the triple-helix formation.

## (GPO)4
  triple helix formation / self-assembly: does not
